# In patent US5196513A, “Synthetic peptides derived from the beta-subunit of human thyroid stimulating hormone” (Mayo Foundation for Medical Education and Research, priority 1991, dated 1993):
# Residues, ends and D or L forms follow the SMILES beside them.
# Legend:
# [1] = target: T1, porcine TSH receptor (porcine thyroid membranes) (Sus scrofa, UniProt Q8SPP9); experiment: Porcine thyroid membrane TSH radio-receptor assay (inhibition of 125I-bTSH binding); settings: concentration inhibiting 125I-bTSH binding to porcine thyroid membrane by 50%; mean ± se of at least 3 assays
# T1 construct: Frozen porcine thyroid glands were purchased; tissue Pel-Freez Biologicals; host or cells: porcine thyroid glands, crude membrane preparation
# Description: Frozen porcine thyroid glands were purchased (Pel-Freez Biologicals, Rogers, Ak.) and prepared using the same procedures as for the human glands.
# (§1) Highly purified bTSH (30 U/mg, supplied by Dr. J. G. Pierce, formerly of UCLA) was radio-iodinated (Na^125 I, Amersham, Chicago) by a lactoperoxidase technique to a specific activity averaging 40-50 μCi/μg as previously described, Takahashi et al., supra, then purified by Sephadex G-100 chromatography.
# (§2) The TSH radio-receptor assay (RRA) utilized for the studies has been well described previously; see Takahashi et al., supra and Morris et al., Endocrinology, 123:456-462 (1988), the disclosure of which is incorporated by reference herein. Briefly, for either human or porcine thyroid RRA, the incubation mixture consisted of the following: 10 mg equivalents of wet weight (mg eq) crude thyroid membrane preparation, 0.124 ng [^125 I]iodo-bTSH (approximately 20,000 cpm), 0.2% Triton X-100, and the noted amounts of synthetic peptides or unlabeled bTSH in 0.5 ml 40 mM Tris, 0.1% BSA, pH 7.4. Bound label was separated from free after 2 hrs incubation at 25° C. by addition of a 1 ml 30% polyethylene glycol (PEG, Baker, Phillipsburg, N.J.) 6000 in 1M NaCl and centrifugation. The resulting pellet was counted in a gamma counter. Non-specific binding was determined by addition of a 100 mU/ml crude bTSH (Sigma, St. Louis).
# [2] = target: T2, TSH receptor on human thyroid membranes (Homo sapiens, UniProt P16473); experiment: Human thyroid membrane TSH radio-receptor assay (inhibition of 125I-bTSH binding); settings: for EC50: concentration inhibiting 125I-bTSH binding to human thyroid membrane by 50%, mean ± se of at least 3 assays; for Inhibition of TSH binding to human thyroid membrane (in words): human thyroid membrane RRA
# T2 construct: Crude membrane preparations were prepared from the frozen tissue; from tissue; host or cells: human thyroid tissue (Graves' disease patients), crude 2000 x g membrane fraction
# Protocol: Thyroid tissue from patients with Graves' disease was obtained at surgery and promptly frozen and maintained at -70° C. Crude membrane preparations were prepared from the frozen tissue as previously described, Takahashi et al., J. Clin. Endocrinol. Metab., 47:870-876 (1978), the disclosure of which is incorporated by reference herein. Briefly, the tissue was homogenized with a Polytron homogenizer (Brinkmann Instruments,Westbury, N.Y.), and the 2000×g fraction was collected by centrifugation, washed, and resuspended in 40 mM Tris, 200 mM sucrose, pH 7.4. Membrane preparations were maintained at -70° C. until assay.
# as §1, §2
# FRTL5 cells = FRTL5 cells (Rattus norvegicus, UniProt P21463); experiment: TSab bioassay, inhibition of TSab-stimulated cAMP generation in FRTL5 cells; type: cell-based; settings: for Serum samples in which TSab-stimulated cAMP was significantly inhibited (p<0.05) / samples tested: peptide 150 μg/ml; for Inhibition of TSab-stimulated cAMP generation (in words): peptide 50 and 150 μg/ml
# Protocol: FRTL5 cells were cultured in Hams F-12 medium supplemented with 5% calf serum and a preparation containing 6 hormones (6H), including 10 mU/ml bTSH (Sigma, St. Louis, Mo.), as previously described. Ambesi-Impiombato et al., Proc. Natl. Acad. Sci. U.S.A., 77:3455 (1980), the disclosure of which is incorporated by reference herein. The cells were enzymatically removed from flasks and plated in 24 well plates containing 6H at a density of 150,000 cells per well. After 4 days, the cells were washed and the media replaced with media containing insulin only (1H). All subsequent assays were performed on cells deprived of TSH for 5-7 days.
# Serum samples from 15 patients with elevated TSab levels were selected from the clinical chemistry laboratory. The TSab values, expressed as an index, [formula] 63:707 (1988)]ranged from 10-20 with an average of 13.8±3.3. Normal serum has an index of less than 1.3.
# The bioassay described by Kasagi et al., supra, with modifications as previously noted above, was used. The immunoglobulins were precipitated from 2 ml of TSab-containing serum with 6 ml of polyethylene glycol 6,000 (Baker; Phillipsburg, N.J.), centrifuged at 3,000×g for 20 minutes, and resuspended in 4 ml of NaCl-free HBSS with 0.5 mM IBMX and 0.5% BSA. The plated cells were washed with NaCl-free HBSS and the crude immunoglobulin extract, mixed with various concentrations of β-subunit peptides, was added in duplicate to the wells (total volume 200 μl/well). The cells were incubated for 2 hours at 37° C. and 5% CO2. The samples were then removed from the cells and a portion diluted 1:50 in NaOAc buffer, pH 6.2. A 25 μl aliquot of this was then used in a cAMP RIA as described above. The basal cAMP levels were determined for each plate of cells in the absence of immunoglobulin extract and β-peptides. A maximal cAMP level was attained by stimulating the cells with the immunoglobulin extract only. The percent increase in cAMP levels above basal was calculated as: [formula] as previously described (see Morris et al., supra). The percent inhibition of cAMP production by the β-subunit peptides was calculated as described above for TSH-stimulated cells, substituting pmol cAMP crude immunoglobulin for pmol cAMP TSH.
# Inhibition of TSab activity was tested by comparing the replicates of cAMP levels generated in the presence of peptide to those generated by TSab alone using Student's T test for unpaired samples. Mean inhibition by the various doses of synthetic peptide for the patient group was tested by comparison with maximum cAMP response within each patient sample using the T test for paired samples.
# FRTL5 cells, sequence (P21463 22-764): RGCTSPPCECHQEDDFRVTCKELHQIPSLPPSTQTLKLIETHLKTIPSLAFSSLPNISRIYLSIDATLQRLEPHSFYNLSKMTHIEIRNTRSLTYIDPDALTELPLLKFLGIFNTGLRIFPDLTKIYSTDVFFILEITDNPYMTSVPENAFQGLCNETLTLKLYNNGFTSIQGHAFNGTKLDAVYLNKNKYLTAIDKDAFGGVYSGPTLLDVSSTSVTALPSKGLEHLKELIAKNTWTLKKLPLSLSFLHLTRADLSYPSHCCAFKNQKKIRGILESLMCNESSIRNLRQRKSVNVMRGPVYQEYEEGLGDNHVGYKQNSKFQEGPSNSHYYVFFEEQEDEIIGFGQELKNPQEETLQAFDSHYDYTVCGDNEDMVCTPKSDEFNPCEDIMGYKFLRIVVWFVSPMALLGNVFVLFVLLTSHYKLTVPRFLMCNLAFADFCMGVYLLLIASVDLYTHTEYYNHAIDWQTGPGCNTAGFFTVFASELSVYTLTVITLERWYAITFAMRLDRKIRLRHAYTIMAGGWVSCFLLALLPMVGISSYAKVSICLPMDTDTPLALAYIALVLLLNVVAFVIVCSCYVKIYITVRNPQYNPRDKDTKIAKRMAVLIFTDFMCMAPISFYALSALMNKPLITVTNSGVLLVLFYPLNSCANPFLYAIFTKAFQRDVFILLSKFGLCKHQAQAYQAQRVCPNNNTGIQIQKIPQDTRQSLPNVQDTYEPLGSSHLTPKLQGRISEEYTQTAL
# T2 sequence (P16473 21-764): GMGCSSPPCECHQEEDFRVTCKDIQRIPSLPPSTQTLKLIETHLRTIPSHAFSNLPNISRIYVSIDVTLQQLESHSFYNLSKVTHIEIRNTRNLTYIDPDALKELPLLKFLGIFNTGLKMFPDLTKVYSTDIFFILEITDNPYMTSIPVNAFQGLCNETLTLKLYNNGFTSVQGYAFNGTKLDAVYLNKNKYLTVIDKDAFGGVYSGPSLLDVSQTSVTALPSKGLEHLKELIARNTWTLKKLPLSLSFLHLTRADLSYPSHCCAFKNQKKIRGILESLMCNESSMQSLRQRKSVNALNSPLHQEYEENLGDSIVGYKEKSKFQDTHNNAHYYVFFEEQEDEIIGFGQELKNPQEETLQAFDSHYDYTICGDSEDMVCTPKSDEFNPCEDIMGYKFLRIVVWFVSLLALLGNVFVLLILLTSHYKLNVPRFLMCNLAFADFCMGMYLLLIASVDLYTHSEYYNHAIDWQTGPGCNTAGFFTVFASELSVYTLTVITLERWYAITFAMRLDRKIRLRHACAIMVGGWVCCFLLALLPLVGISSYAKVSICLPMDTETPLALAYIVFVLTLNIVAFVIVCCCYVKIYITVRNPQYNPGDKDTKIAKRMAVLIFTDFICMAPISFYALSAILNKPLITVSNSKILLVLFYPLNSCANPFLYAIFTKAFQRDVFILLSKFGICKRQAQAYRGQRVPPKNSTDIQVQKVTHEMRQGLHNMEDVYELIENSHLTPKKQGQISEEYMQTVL
# T1 sequence (Q8SPP9 22-764): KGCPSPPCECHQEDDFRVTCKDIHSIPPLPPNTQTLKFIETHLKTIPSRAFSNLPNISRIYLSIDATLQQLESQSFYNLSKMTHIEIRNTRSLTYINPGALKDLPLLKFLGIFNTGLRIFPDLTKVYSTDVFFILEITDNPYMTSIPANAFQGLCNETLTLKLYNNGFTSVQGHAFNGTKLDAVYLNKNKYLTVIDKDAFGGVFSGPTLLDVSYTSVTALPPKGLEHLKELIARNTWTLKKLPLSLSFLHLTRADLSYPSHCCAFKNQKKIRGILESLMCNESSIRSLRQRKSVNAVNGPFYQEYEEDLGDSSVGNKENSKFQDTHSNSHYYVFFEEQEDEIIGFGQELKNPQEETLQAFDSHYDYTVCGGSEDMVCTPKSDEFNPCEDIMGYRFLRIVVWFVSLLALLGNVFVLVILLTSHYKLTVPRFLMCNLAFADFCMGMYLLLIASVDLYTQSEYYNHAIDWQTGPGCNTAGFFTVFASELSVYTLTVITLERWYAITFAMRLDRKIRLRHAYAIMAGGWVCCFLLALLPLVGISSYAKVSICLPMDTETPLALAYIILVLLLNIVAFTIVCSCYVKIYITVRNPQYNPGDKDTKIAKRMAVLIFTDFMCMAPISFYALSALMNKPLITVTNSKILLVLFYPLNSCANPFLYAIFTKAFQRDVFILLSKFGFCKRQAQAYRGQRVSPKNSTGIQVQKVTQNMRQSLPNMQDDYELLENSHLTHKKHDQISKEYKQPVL
EC50 [1] [µM],EC50 [2] [µM],Serum samples in which TSab-stimulated cAMP was significantly inhibited (p<0.05) / samples tested (FRTL5 cells),Inhibition of TSab-stimulated cAMP generation (in words) (FRTL5 cells; listed as 71-85),SMILES,Inhibition of TSH binding to human thyroid membrane (in words) [2],Inhibition of TSab-stimulated cAMP generation (in words) (FRTL5 cells)
–,–,1/5,effective only at the highest dose,CC(C)C[C@H](NC(=O)[C@H](C)NC(=O)[C@@H](NC(=O)[C@@H]1CCCN1C(=O)[C@H](Cc1ccc(O)cc1)NC(=O)[C@H](CO)NC(=O)[C@H](Cc1ccccc1)NC(=O)[C@H](Cc1ccc(O)cc1)NC(=O)[C@@H]1CCCN1C(=O)[C@H](C)NC(=O)[C@@H](N)C(C)C)C(C)C)C(=O)N[C@@H](CO)C(=O)N[C@@H](CS)C(=O)N[C@@H](CCCCN)C(=O)N[C@@H](CS)C(N)=O [β71-85] (H-VAPYFSYPVALSCKC-NH2; N-terminus assumed),inhibit binding of TSH to human thyroid membrane,significant inhibition only at the highest concentration
> 1000,> 1000,–,–,CC[C@H](C)[C@H](NC(=O)[C@H](CCC(=O)O)NC(=O)[C@@H](NC(=O)[C@@H](N)[C@@H](C)O)C(C)C)C(=O)N1CCC[C@H]1C(=O)NCC(=O)N[C@@H](CS)C(=O)N1CCC[C@H]1C(=O)N[C@@H](CC(C)C)C(=O)N[C@@H](Cc1c[nH]cn1)C(=O)N[C@H](C(=O)N[C@@H](C)C(=O)N1CCC[C@H]1C(=O)N[C@@H](Cc1ccc(O)cc1)C(=O)N[C@@H](Cc1ccccc1)C(N)=O)C(C)C [β61-75] (H-TVEIPGCPLHVAPYF-NH2),–,–
216 ± 18,242 ± 58,–,–,CC(C)C[C@H](NC(=O)[C@H](C)NC(=O)[C@H](Cc1ccc(O)cc1)NC(=O)[C@H](CCCCN)NC(=O)[C@@H]1CCCN1C(=O)[C@H](CC(C)C)NC(=O)[C@@H](N)Cc1ccccc1)C(=O)N[C@@H](CO)C(=O)N[C@@H](CCC(N)=O)C(=O)N[C@@H](CC(=O)O)C(=O)N[C@H](C(=O)N[C@@H](CS)C(=O)N[C@H](C(=O)N[C@@H](Cc1ccc(O)cc1)C(=O)N[C@@H](CCCNC(=N)N)C(N)=O)[C@@H](C)O)C(C)C [β41-55] (H-FLPKYALSQDVCTYR-NH2),–,–

# The remaining lines, values behind:
SMILES,EC50 [1] [µM],EC50 [2] [µM],Serum samples in which TSab-stimulated cAMP was significantly inhibited (p<0.05) / samples tested (FRTL5 cells),Inhibition of TSab-stimulated cAMP generation (in words) (FRTL5 cells; listed as 71-85),Inhibition of TSH binding to human thyroid membrane (in words) [2],Inhibition of TSab-stimulated cAMP generation (in words) (FRTL5 cells)
CC[C@H](C)[C@H](NC(=O)[C@H](Cc1ccccc1)NC(=O)[C@H](CC(=O)O)NC(=O)[C@H](CCCNC(=N)N)NC(=O)[C@H](Cc1ccc(O)cc1)NC(=O)[C@@H](NC(=O)[C@H](CS)NC(=O)[C@@H](N)C(C)C)[C@@H](C)O)C(=O)N[C@@H](Cc1ccc(O)cc1)C(=O)N[C@@H](CCCNC(=N)N)C(=O)N[C@H](C(=O)N[C@H](C(=O)N[C@@H](CCC(=O)O)C(=O)N[C@H](C(=O)N1CCC[C@H]1C(N)=O)[C@@H](C)CC)C(C)C)[C@@H](C)O [β51-65] (H-VCTYRDFIYRTVEIP-NH2),> 1000,> 1000,–,–,–,–
CC[C@H](C)[C@H](NC(=O)[C@H](CC(=O)O)NC(=O)[C@H](CCCNC(=N)N)NC(=O)[C@@H](NC(=O)[C@H](CCSC)NC(=O)[C@@H](N)CS)[C@@H](C)O)C(=O)N[C@@H](CC(N)=O)C(=O)NCC(=O)N[C@@H](CCCCN)C(=O)N[C@@H](CC(C)C)C(=O)N[C@@H](Cc1ccccc1)C(=O)N[C@@H](CC(C)C)C(=O)N1CCC[C@H]1C(=O)N[C@@H](CCCCN)C(=O)N[C@@H](Cc1ccc(O)cc1)C(N)=O [β31-45] (H-CMTRDINGKLFLPKY-NH2),200 ± 36,186 ± 25,–,–,–,–
CC[C@H](C)[C@H](N)C(=O)N[C@@H](CCC(=O)O)C(=O)N[C@@H](CCCNC(=N)N)C(=O)N[C@@H](CCCNC(=N)N)C(=O)N[C@@H](CCC(=O)O)C(=O)N[C@@H](CS)C(=O)N[C@@H](C)C(=O)N[C@@H](Cc1ccc(O)cc1)C(=O)N[C@@H](CS)C(=O)N[C@@H](CC(C)C)C(=O)N[C@H](C(=O)N[C@H](C(=O)N[C@@H](CC(N)=O)C(=O)N[C@H](C(=O)N[C@H](C(N)=O)[C@@H](C)O)[C@@H](C)O)[C@@H](C)CC)[C@@H](C)O [β11-25] (H-IERRECAYCLTINTT-NH2),186 ± 28,> 1000,–,–,inactive,–
CC[C@H](C)[C@H](NC(=O)[C@@H](N)[C@@H](C)O)C(=O)N[C@@H](CC(N)=O)C(=O)N[C@H](C(=O)N[C@H](C(=O)N[C@H](C(=O)N[C@@H](CS)C(=O)N[C@@H](C)C(=O)NCC(=O)N[C@@H](Cc1ccc(O)cc1)C(=O)N[C@@H](CS)C(=O)N[C@@H](CCSC)C(=O)N[C@H](C(=O)N[C@@H](CCCNC(=N)N)C(=O)N[C@@H](CC(=O)O)C(N)=O)[C@@H](C)O)[C@@H](C)CC)[C@@H](C)O)[C@@H](C)O [β21-35] (H-TINTTICAGYCMTRD-NH2),> 1000,> 1000,–,–,–,–
CC[C@H](C)[C@H](NC(=O)[C@H](C)NC(=O)[C@H](CCC(=O)O)NC(=O)[C@H](Cc1c[nH]cn1)NC(=O)[C@@H](NC(=O)[C@H](CS)NC(=O)[C@H](CC(=O)O)NC(=O)[C@H](CO)NC(=O)[C@H](Cc1ccc(O)cc1)NC(=O)[C@@H](N)CC(=O)O)[C@@H](C)CC)C(=O)N[C@@H](CCCCN)C(=O)N[C@H](C(=O)N[C@@H](CC(N)=O)C(=O)N[C@@H](Cc1ccc(O)cc1)C(=O)N[C@@H](CS)C(N)=O)[C@@H](C)O [β91-105] (H-DYSDCIHEAIKTNYC-NH2; N-terminus assumed),–,–,1/12,–,–,did not inhibit TSab activity
